Test results: PMC11768629, “Potential Interaction of Pinocembrin with Drug Transporters and Hepatic Drug-Metabolizing Enzymes” (Pharmaceuticals, 2025)

Tests used:
hOAT1-MDCK cells = experiment: Cell viability assay (MTT) in hOAT1-MDCK cells; type: cell-based, canine; conditions: tenofovir 5 µM, 48 h
Method: (§1) The hOAT1-MDCK cells and hOAT3-MDCK cells were treated with 1, 10, and 50 μM pinocembrin for 24 h, followed by a measurement of ^3H-PAH and ^3H-estrone sulfate cellular accumulation. […] The inhibitory effect of pinocembrin occurred in a concentration-dependent manner.
(§2) We determined whether the inhibitory effect of pinocembrin on hOAT1 and hOAT3. We studied whether pinocembrin could reduce the renal toxicity of tenofovir, a substrate of hOAT1 and hOAT3 known for inducing renal tubular dysfunction.
(§3) The confluent cells in 96-well plates were treated with pinocembrin for 48 h at 37 °C. After that, the cells were incubated with 0.5 mg/mL MTT solution for four hours. The MTT solution was removed, and DMSO (100 µL) was added to dissolve the crystal formazan. The formazan content was detected at a wavelength of 570 nm using a microplate reader. Cell viability was reported as a percentage of the vehicle-treated cells.

hOAT3-MDCK cells = experiment: Cell viability assay (MTT) in hOAT3-MDCK cells; type: cell-based, canine; conditions: tenofovir 5 µM, 48 h
Method: as §1, §2, §3

C[C@H](Cn1cnc2c(N)ncnc21)OCP(=O)(O)O [tenofovir]
cell viability (hOAT1-MDCK cells): significantly reduced the cell viability
cell viability (hOAT3-MDCK cells): did not affect the viability
